{
  "source": "paper PMC4393303",
  "about": "(PLoS ONE, 2015)",
  "key": {"PknA": {"target": "PknA (Mycobacterium tuberculosis, UniProt P9WI83)", "sequence (P9WI83 whole entry)": "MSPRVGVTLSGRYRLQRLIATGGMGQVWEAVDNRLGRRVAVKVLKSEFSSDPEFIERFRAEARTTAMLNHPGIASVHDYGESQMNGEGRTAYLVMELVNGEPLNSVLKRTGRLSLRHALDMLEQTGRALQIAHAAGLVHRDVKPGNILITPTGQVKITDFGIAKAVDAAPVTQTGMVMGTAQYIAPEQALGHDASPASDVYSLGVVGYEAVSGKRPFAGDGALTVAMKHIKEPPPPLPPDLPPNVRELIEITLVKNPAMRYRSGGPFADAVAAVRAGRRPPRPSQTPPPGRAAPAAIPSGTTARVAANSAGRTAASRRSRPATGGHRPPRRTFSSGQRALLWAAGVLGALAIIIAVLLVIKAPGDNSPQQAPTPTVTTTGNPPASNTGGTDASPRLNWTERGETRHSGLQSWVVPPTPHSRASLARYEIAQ"}, "PknD (GST-PknD)": {"target": "PknD (GST-PknD) (Mycobacterium tuberculosis, UniProt P9WI79)", "sequence (P9WI79 whole entry)": "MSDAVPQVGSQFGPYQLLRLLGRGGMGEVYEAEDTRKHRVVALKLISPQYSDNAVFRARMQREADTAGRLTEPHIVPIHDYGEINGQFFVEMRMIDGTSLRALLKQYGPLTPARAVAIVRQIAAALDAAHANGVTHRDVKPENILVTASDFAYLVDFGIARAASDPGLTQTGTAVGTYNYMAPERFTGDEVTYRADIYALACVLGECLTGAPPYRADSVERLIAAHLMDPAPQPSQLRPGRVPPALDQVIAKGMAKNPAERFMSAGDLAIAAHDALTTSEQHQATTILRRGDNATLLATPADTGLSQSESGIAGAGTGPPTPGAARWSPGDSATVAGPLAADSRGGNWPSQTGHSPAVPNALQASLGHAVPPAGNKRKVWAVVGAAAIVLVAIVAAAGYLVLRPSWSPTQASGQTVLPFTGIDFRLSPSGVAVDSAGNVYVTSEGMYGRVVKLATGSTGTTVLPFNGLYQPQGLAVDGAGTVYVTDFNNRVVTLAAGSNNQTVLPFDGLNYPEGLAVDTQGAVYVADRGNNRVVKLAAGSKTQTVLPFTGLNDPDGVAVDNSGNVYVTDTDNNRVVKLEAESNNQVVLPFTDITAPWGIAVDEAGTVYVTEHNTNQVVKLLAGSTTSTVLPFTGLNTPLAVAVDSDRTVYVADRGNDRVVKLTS"}, "PknJ": {"target": "PknJ (Mycobacterium tuberculosis, UniProt P9WI67)", "sequence (P9WI67 whole entry)": "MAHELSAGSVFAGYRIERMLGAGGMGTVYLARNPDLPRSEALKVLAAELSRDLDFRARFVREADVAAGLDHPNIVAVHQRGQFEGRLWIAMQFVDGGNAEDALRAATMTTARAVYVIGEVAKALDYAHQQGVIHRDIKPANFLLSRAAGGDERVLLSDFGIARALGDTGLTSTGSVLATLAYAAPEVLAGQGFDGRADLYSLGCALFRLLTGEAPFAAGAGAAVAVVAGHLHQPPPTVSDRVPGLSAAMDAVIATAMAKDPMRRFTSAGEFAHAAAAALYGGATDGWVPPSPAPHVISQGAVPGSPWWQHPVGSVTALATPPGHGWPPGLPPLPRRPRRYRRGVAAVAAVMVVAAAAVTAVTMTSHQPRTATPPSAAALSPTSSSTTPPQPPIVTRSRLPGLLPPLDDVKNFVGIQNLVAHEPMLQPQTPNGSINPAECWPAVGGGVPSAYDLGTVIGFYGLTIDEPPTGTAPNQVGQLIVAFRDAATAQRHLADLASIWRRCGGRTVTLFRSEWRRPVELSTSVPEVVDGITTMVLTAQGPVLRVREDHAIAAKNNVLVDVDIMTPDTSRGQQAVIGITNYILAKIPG"}, "PknG": {"target": "PknG (Mycobacterium tuberculosis, UniProt P9WI73)", "sequence (P9WI73 whole entry)": "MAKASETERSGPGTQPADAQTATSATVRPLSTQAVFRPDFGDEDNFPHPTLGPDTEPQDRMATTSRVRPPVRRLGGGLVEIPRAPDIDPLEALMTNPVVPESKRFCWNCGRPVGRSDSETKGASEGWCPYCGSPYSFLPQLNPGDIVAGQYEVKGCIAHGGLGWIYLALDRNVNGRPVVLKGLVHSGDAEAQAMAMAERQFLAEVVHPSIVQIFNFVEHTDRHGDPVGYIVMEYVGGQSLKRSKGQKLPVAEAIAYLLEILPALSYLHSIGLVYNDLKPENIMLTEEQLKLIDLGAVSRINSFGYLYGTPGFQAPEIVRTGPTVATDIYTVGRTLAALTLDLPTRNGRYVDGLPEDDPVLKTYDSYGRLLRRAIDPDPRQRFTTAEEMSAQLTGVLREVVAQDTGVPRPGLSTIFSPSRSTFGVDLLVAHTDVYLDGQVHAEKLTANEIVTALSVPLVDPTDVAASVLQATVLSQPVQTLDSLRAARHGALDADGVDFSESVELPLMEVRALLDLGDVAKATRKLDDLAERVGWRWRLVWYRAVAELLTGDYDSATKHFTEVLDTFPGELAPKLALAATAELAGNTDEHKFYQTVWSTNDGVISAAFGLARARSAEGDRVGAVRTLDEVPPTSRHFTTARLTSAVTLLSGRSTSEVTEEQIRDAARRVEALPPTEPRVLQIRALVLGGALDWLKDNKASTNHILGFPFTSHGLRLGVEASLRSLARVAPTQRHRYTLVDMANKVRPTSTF"}, "PknH": {"target": "PknH (Mycobacterium tuberculosis, UniProt P9WI71)", "sequence (P9WI71 whole entry)": "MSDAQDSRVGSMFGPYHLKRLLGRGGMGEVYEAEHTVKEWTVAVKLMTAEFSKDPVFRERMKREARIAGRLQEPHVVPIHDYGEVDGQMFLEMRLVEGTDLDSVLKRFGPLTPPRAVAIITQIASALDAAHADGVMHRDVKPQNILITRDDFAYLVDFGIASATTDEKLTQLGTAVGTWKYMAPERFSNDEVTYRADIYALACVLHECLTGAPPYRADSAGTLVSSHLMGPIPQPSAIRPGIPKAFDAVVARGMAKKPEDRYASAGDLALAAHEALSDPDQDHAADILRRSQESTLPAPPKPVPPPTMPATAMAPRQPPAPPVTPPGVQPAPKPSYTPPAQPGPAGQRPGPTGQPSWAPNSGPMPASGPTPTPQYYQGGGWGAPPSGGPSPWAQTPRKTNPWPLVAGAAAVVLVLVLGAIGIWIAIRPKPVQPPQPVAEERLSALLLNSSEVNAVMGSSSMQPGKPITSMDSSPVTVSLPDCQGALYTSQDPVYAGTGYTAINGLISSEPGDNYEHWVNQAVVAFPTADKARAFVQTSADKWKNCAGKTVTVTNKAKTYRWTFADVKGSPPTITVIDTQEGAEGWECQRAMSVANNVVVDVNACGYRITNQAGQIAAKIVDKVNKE"}, "PknE": {"target": "PknE (Mycobacterium tuberculosis, UniProt P9WI77)", "sequence (P9WI77 whole entry)": "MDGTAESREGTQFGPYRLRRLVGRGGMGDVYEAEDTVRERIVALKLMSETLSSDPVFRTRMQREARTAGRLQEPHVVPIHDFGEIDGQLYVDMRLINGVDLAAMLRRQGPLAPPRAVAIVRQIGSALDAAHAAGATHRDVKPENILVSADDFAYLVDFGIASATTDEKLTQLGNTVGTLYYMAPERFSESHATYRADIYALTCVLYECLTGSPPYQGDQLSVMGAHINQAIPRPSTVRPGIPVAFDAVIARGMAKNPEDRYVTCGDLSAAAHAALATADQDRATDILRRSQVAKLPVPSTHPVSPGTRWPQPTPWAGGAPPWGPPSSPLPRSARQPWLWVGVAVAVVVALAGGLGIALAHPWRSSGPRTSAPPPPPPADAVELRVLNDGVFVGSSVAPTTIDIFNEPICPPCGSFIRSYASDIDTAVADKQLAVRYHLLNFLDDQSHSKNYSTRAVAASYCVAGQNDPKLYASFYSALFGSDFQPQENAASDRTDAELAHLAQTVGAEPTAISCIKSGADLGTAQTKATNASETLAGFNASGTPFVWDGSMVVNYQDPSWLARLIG"}},
  "data": [
    {"smiles": "Nc1ncnc2c1ncn2[C@@H]1O[C@H](COP(=O)(O)OP(=O)(O)OP(=O)(O)O)[C@@H](O)[C@H]1O", "note": "[[γ-^33P]ATP]", "values": [
      {"measurement": "in vitro radiolabelled phosphorylation, SDS-PAGE autoradiography", "setting": "PknA", "result": "PknA, PknD, PknE, PknG, PknH and PknJ phosphorylated the (His)6-MDH"},
      {"measurement": "in vitro radiolabelled phosphorylation, SDS-PAGE autoradiography", "setting": "PknD (GST-PknD)", "result": "the MDH was phosphorylated by PknD, but could not be autophosphorylated"},
      {"measurement": "in vitro radiolabelled phosphorylation, SDS-PAGE autoradiography", "setting": "PknJ", "result": "PknA, PknD, PknE, PknG, PknH and PknJ phosphorylated the (His)6-MDH"},
      {"measurement": "in vitro radiolabelled phosphorylation, SDS-PAGE autoradiography", "setting": "PknG", "result": "PknA, PknD, PknE, PknG, PknH and PknJ phosphorylated the (His)6-MDH"},
      {"measurement": "in vitro radiolabelled phosphorylation, SDS-PAGE autoradiography", "setting": "PknH", "result": "PknA, PknD, PknE, PknG, PknH and PknJ phosphorylated the (His)6-MDH"},
      {"measurement": "in vitro radiolabelled phosphorylation, SDS-PAGE autoradiography", "setting": "PknE", "result": "PknA, PknD, PknE, PknG, PknH and PknJ phosphorylated the (His)6-MDH"}
    ]}
  ]
}
